Data as given in patent US10787457B2 (priority 2015, dated 2020).

Conditions: mouse hepatic microsome 0.25 mg/mL; 1 μM; 37° C. 30 minutes; NADPH-generating system

- percentage of the remaining tested compounds (remaining %): 0%
SMILES: Cc1ccc(-c2nn(C(C)(C)C)c3ncnc(N)c23)cc1 [Compound 4 of Comparative Examples, 1-(tert-butyl)-3-(p-tolyl)pyrazolo[3,4-d]pyrimidin-4-amine]
